From patent US8178552B2, “7-Azaindole derivatives and their use in the inhibition of c-Jun N-terminal kinase” (Eisai R&D Management Co., Ltd., priority 2008, dated 2012) come the findings set out here.

This test deals with JNK3 (Homo sapiens, UniProt P53779). Nature of the test: JNK3 SPA assay. It is filed as biochemical. Particulars: 3.33 μM ATP, GST-c-Jun substrate; read-out: IC50 against JNK3. The method, then: JNK1, JNK2, JNK3—SPA Assay
JNK3, sequence (P53779 whole entry, species assumed): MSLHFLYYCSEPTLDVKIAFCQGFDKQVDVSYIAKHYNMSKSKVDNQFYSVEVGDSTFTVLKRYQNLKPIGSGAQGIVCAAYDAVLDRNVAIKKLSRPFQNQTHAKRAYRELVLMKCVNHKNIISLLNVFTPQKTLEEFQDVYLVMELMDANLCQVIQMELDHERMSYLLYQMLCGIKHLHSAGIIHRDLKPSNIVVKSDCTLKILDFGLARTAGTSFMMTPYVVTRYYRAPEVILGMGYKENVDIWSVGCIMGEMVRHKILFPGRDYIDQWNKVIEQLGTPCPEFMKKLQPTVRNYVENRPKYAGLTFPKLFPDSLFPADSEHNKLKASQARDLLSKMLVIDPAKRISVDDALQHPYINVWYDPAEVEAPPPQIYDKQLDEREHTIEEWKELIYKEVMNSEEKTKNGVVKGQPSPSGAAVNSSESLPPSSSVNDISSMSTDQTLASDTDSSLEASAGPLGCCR
JNK1, JNK2, JNK3—SPA Assay • 1. Compound is dissolved in DMSO to a convenient concentration and this is diluted in 10% DMSO to a five times concentrate of the desired starting concentration (frequently 1:100). • 2. 10 μl of 500 mM EDTA is added to alternative wells of the Opti-plate row, which will receive kinase reaction plus DMSO. This creates the negative control. • 3. For the JNK2 and JNK3 assay, compounds are prepared in six 2-fold dilutions with water and each concentration is tested in duplicate. For the JNK1 assay compounds are prepared in four 5-fold dilutions with water which are tested in triplicate. Controls are treated identically. • 4. 20 μl per well of each compound concentration is transferred to an Opti-plate, in duplicate. • 5. 30 μl (JNK2/3 SPA) or 50 μl (JNK1 SPA) of substrate solution (25 mM HEPES pH 7.5, 10 mM magnesium acetate with 3.33 μM ATP (JNK2/3) or 2 μM ATP (JNK1), approximately 7.5 kBq [γ-^33P] ATP, GST-c-Jun, in water) is added to each well. • 6. 50 μl (JNK2/3 SPA) or 30 μl (JNK1 SPA) of kinase solution (JNK in 25 mM HEPES pH 7.5, 10 mM Mg Acetate) is added to each well.
• 7. The plate is incubated for 30 minutes at room temperature. • 8. 100 μl of bead/stop solution is added to each well (5 mg/ml glutathione-PVT-SPA beads, 40 mM ATP in PBS). • 9. Plates are sealed and incubated for 30 minutes at room temperature, centrifuged for 10 minutes at 2500 g and counted. • 10. The IC50 values are calculated as the concentration of the compound being tested at which the phosphorylation of c-Jun is decreased to 50% of the control value.
Take `Cn1cc(-c2c[nH]c3ncc([C@H]4CC[C@H](N5CCCCC5)CC4)cc23)cn1` [Compound I-45, 3-(1-methyl-1H-pyrazol-4-yl)-5-((1r,4r)-4-(piperidin-1-yl)cyclohexyl)-1H-pyrrolo[2,3-b]pyridine]: the 50% inhibitory concentration (IC50) was 166 nM. In the case of `CCN(C(C)C)C1CCC(c2cnc3[nH]cc(-c4cnn(C)c4)c3c2)CC1` (mixture of isomers) [Compound I-133, N-ethyl-N-isopropyl-4-(3-(1-methyl-1H-pyrazol-4-yl)-1H-pyrrolo[2,3-b]pyridin-5-yl)cyclohexanamine] it was 468 nM. In the case of `CN1C2CC3CC(C2)C(O)C1(c1cnc2[nH]cc(-c4cnn(C)c4)c2c1)C3` (stereo not drawn) [Compound I-153] it was 288 nM. The figure for `CCNC1CCC(c2cnc3[nH]cc(-c4cnn(C)c4)c3c2)CC1` (stereo not drawn) [Compound I-55, Ethyl-{4-[3-(1-methyl-1H-pyrazol-4-yl)-1H-pyrrolo[2,3-b]pyridin-5-yl]-cyclohexyl}-amine] is 263 nM; for `CCC1CCC(c2cnc3[nH]cc(-c4cnn(C)c4)c3c2)CC1` (mixture of isomers) [Compound I-22, 5-(4-ethylcyclohexyl)-3-(1-methyl-1H-pyrazol-4-yl)-1H-pyrrolo[2,3-b]pyridine] it is 25 nM; for `Cn1cc(-c2c[nH]c3ncc(C4=CCC(C)(C)CC4)cc23)cn1` [Compound I-15, 5-(4,4-dimethylcyclohex-1-enyl)-3-(1-methyl-1H-pyrazol-4-yl)-1H-pyrrolo[2,3-b]pyridine] it is 275 nM. Regarding `Cn1cc(-c2c[nH]c3ncc(C4CC5CC4C(CO)C5CO)cc23)cn1` (stereo not drawn) [Compound I-140, (5-(3-(1-methyl-1H-pyrazol-4-yl)-1H-pyrrolo[2,3-b]pyridin-5-yl)bicyclo[2.2.1]heptane-2,3-diyl)dimethanol], the concentration for half-maximal inhibition (IC50) was 87 nM. In the case of `Cn1cc(-c2c[nH]c3ncc(C4=C[C@H]5O[C@@H]4C[C@H]5C#N)cc23)cn1` [I-155 endo, (1R,2S,4R)-5-(3-(1-methyl-1H-pyrazol-4-yl)-1H-pyrrolo[2,3-b]pyridin-5-yl)-7-oxabicyclo[2.2.1]hept-5-ene-2-carbonitrile] it was 174 nM; in that of `Cn1cc(-c2c[nH]c3ncc([C@@H]4C[C@H]5O[C@@H]4CC5C#N)cc23)cn1` (stereo partly drawn) [Compound I-157, (1R,4R,5S)-5-(3-(1-methyl-1H-pyrazol-4-yl)-1H-pyrrolo[2,3-b]pyridin-5-yl)-7-oxabicyclo[2.2.1]heptane-2-carbonitrile], 295 nM; in that of `CC1CC(c2cnc3[nH]cc(-c4cnn(C)c4)c3c2)CC(C)(C)C1` (mixture of isomers) [Compound I-36, 3-(1-methyl-1H-pyrazol-4-yl)-5-(3,3,5-trimethylcyclohexyl)-1H-pyrrolo[2,3-b]pyridine], 257 nM. In the case of `Cn1cc(-c2c[nH]c3ncc(C4CCC(N5CCC5)CC4)cc23)cn1` (stereo not drawn) [Compound I-41, 5-(4-(azetidin-1-yl)cyclohexyl)-3-(1-methyl-1H-pyrazol-4-yl)-1H-pyrrolo[2,3-b]pyridine] it was 103 nM. In the case of `c1nn(CCN2CCOCC2)cc1-c1c[nH]c2ncc([C@H]3CC[C@H](N4CCOCC4)CC3)cc12` [Compound I-57, 4-(2-(4-(5-((1r,4r)-4-morpholinocyclohexyl)-1H-pyrrolo[2,3-b]pyridin-3-yl)-1H-pyrazol-1-yl)ethyl)morpholine] it was 417 nM; in that of `CCCN(C)[C@H]1CC[C@H](c2cnc3[nH]cc(-c4cnn(C)c4)c3c2)CC1` [Compound I-115, (1r,4r)-N-methyl-4-(3-(1-methyl-1H-pyrazol-4-yl)-1H-pyrrolo[2,3-b]pyridin-5-yl)-N-propylcyclohexanamine], 347 nM. Consider `CN(C)[C@H]1CC[C@@H](c2cnc3[nH]cc(-c4cnn(CCN5CCOCC5)c4)c3c2)CC1` [Compound I-59, (1s,4s)-N,N-dimethyl-4-(3-(1-(2-morpholinoethyl)-1H-pyrazol-4-yl)-1H-pyrrolo[2,3-b]pyridin-5-yl)cyclohexanamine], for which the IC50 is more than 500 nM.

Consider `CC1CCCCC1c1cnc2[nH]cc(-c3cnn(C)c3)c2c1` (mixture of isomers) [Compound I-33, 3-(1-methyl-1H-pyrazol-4-yl)-5-(2-methylcyclohexyl)-1H-pyrrolo[2,3-b]pyridine], for which the IC50 turned out to be 110 nM. On to `FC(F)n1cc(-c2c[nH]c3ncc([C@H]4CC[C@H](N5CCOCC5)CC4)cc23)cn1` [Compound I-80, 4-((1r,4r)-4-(3-(1-(difluoromethyl)-1H-pyrazol-4-yl)-1H-pyrrolo[2,3-b]pyridin-5-yl)cyclohexyl)morpholine], for which the IC50 amounted to 148 nM. In the case of `Cn1cc(-c2c[nH]c3ncc([C@]4(F)CC[C@@H](N5CCOCC5)CC4)cc23)cn1` [Compound I-162, 4-((1s,4s)-4-fluoro-4-(3-(1-methyl-1H-pyrazol-4-yl)-1H-pyrrolo[2,3-b]pyridin-5-yl)cyclohexyl)morpholine] it was more than 2000 nM; in that of “Mixture of 3-(1-methyl-1H-pyrazol-4-yl)-5-(3,5,5-trimethylcyclohex-1-enyl)-1H-pyrrolo[2,3-b]pyridine and 3-(1-methyl-1H-pyrazol-4-yl)-5-(3,3,5-trimethylcyclohex-1-enyl)-1H-pyrrolo[2,3-b]pyridine [Compound I-68]”, 760 nM.

With `Cn1cc(-c2c[nH]c3ncc([C@H]4CC[C@H](NCCO)CC4)cc23)cn1` [Compound I-129, 2-((1r,4r)-4-(3-(1-methyl-1H-pyrazol-4-yl)-1H-pyrrolo[2,3-b]pyridin-5-yl)cyclohexylamino)ethanol], the half-maximal inhibitory concentration (IC50) turned out to be 191 nM. Take `Cn1cc(-c2c[nH]c3ncc(C4=CC5CC[C@]4(C)C5(C)C)cc23)cn1` [Compound I-138, 3-(1-methyl-1H-pyrazol-4-yl)-5-((1R)-1,7,7-trimethylbicyclo[2.2.1]hept-2-en-2-yl)-1H-pyrrolo[2,3-b]pyridine]: the IC50 was 148 nM.

Turning to `CN1C2C=C(c3cnc4[nH]cc(-c5cnn(C)c5)c4c3)CC1CC2` (stereo not drawn) [Compound I-143, 3-(1-methyl-1H-pyrazol-4-yl)-5-(8-methyl-8-azabicyclo[3.2.1]oct-3-en-3-yl)-1H-pyrrolo[2,3-b]pyridine], the IC50 was more than 500 nM.

As for `Cn1cc(-c2c[nH]c3ncc(C4CCC(C)(C)CC4)cc23)cn1` [Compound I-18, 5-(4,4-dimethylcyclohexyl)-3-(1-methyl-1H-pyrazol-4-yl)-1H-pyrrolo[2,3-b]pyridine], the concentration for half-maximal inhibition (IC50) was 288 nM. In the case of `c1n[nH]cc1-c1c[nH]c2ncc([C@H]3CC[C@@H](N4CCOCC4)CC3)cc12` [Compound I-78, 4-((1s,4s)-4-(3-(1H-pyrazol-4-yl)-1H-pyrrolo[2,3-b]pyridin-5-yl)cyclohexyl)morpholine] it was 288 nM; in that of `Cn1cc(-c2c[nH]c3ncc([C@H]4CC[C@@H](N5CCC(F)(F)C5)CC4)cc23)cn1` [Compound I-48, 5-((1s,4s)-4-(3,3-difluoropyrrolidin-1-yl)cyclohexyl)-3-(1-methyl-1H-pyrazol-4-yl)-1H-pyrrolo[2,3-b]pyridine], 182 nM. Consider `Cn1cc(-c2c[nH]c3ncc([C@H]4CC[C@@H](NCCO)CC4)cc23)cn1` [Compound I-130, 2-((1s,4s)-4-(3-(1-methyl-1H-pyrazol-4-yl)-1H-pyrrolo[2,3-b]pyridin-5-yl)cyclohexylamino)ethanol], for which the IC50 was 692 nM. The figure for `CCOCCN[C@H]1CC[C@H](c2cnc3[nH]cc(-c4cnn(C)c4)c3c2)CC1` [Compound I-119, (1r,4r)-N-(2-ethoxyethyl)-4-(3-(1-methyl-1H-pyrazol-4-yl)-1H-pyrrolo[2,3-b]pyridin-5-yl)cyclohexanamine] is 257 nM. In the case of `CCCN(CCO)[C@H]1CC[C@@H](c2cnc3[nH]cc(-c4cnn(C)c4)c3c2)CC1` [Compound I-126, 2-(((1s,4s)-4-(3-(1-methyl-1H-pyrazol-4-yl)-1H-pyrrolo[2,3-b]pyridin-5-yl)cyclohexyl)(propyl)amino)ethanol], the IC50 was determined as 281 nM.

Turning to “Mixture of 3-(1-methyl-1H-pyrazol-4-yl)-5-(6-methylcyclohex-1-enyl)-1H-pyrrolo[2,3-b]pyridine and 3-(1-methyl-1H-pyrazol-4-yl)-5-(2-methylcyclohex-1-enyl)-1H-pyrrolo[2,3-b]pyridine [Compound I-30]”, the 50% inhibitory concentration (IC50) came to 170 nM.

`Cn1cc(-c2c[nH]c3ncc(C4=CC5(CC4)OCCO5)cc23)cn1` [Compound I-51, 3-(1-methyl-1H-pyrazol-4-yl)-5-(1,4-dioxaspiro[4.4]non-6-en-7-yl)-1H-pyrrolo[2,3-b]pyridine]: the IC50 is 191 nM. In the case of `COCCN[C@H]1CC[C@H](c2cnc3[nH]cc(-c4cnn(C)c4)c3c2)CC1` [Compound I-111, (1r,4r)-N-(2-methoxyethyl)-4-(3-(1-methyl-1H-pyrazol-4-yl)-1H-pyrrolo[2,3-b]pyridin-5-yl)cyclohexanamine] it was 263 nM.

By IC50 is commonly meant the concentration that inhibits the measured activity by half.
